Test results published in ChEMBL document CHEMBL1201862, “PubChem BioAssay data set” (2004).
Activity calls are given as the source filed them.

Experiments:
[1] = NIH3T3 cell viability loss – ATP luminescence, mouse fibroblasts, counter-screen, dose response (AID 2010); assay type: functional, cell-based;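 also: cells exposed to compound for about 90 hours before reading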
[2] = Trypanosoma cruzi growth suppression in host cells – NIH3T3 host cells, beta-gal luminescence, confirmation (AID 2044); assay type: functional, cell-based;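 also: intracellular parasites grown in NIH/3T3 mouse fibroblasts as host cells; luminescent beta-galactosidase reporter signal from transgenic T. cruzi replicating inside host cells; inhibitors lower the luminescence signal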
[3] = molecular target: T1, Heat shock factor protein 1 (Mus musculus, UniProt P38532); experiment: enhancement of HSF1-driven luciferase signal – cell-based, NIH3T3, luminescence, dose retest, confirmation (AID 435004); assay type: functional;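 also: stress induced by proteasome inhibitor MG132 added 30 min after compound; luciferase reporter driven by HSF1 response element in NIH3T3 cells; actives raise luminescence as potentiators of the MG132 stress response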
T1 sequence (P38532 whole entry): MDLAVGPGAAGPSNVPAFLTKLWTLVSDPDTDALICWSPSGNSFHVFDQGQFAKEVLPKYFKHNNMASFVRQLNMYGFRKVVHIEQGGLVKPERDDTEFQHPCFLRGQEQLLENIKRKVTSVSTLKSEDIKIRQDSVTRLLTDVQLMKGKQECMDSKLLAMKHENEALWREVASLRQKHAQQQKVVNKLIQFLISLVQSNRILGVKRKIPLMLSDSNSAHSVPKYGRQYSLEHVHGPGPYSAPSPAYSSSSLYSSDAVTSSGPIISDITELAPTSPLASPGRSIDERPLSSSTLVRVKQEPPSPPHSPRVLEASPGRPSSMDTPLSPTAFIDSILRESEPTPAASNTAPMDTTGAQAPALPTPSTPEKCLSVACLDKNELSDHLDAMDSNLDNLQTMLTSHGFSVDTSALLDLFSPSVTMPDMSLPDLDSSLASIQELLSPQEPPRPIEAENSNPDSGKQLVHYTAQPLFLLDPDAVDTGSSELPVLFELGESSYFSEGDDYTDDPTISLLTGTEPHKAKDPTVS

[4] = molecular target: T2, Zinc finger protein mex-5 (Caenorhabditis elegans, UniProt Q9XUB2); experiment: potency of MEX-5 RNA-binding blockers – biochemical, C. elegans, fluorescence polarization, dose response (AID 1960)
T2 sequence (Q9XUB2 whole entry): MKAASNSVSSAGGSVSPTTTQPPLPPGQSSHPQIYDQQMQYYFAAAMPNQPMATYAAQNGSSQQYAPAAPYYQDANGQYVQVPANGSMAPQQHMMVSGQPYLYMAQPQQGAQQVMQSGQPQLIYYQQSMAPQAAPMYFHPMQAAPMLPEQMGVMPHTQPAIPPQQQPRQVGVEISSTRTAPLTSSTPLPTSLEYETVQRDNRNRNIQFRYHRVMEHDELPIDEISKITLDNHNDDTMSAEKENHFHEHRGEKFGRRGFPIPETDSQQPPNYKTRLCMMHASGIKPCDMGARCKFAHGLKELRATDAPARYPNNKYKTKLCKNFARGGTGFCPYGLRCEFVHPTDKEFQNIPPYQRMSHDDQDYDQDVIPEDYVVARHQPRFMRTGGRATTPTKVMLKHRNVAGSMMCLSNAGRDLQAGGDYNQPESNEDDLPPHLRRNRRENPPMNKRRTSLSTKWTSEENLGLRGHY

[5] = molecular target: T3, RNA-binding protein pos-1 (Caenorhabditis elegans, UniProt G5EF15); experiment: disruptors of C. elegans POS-1 RNA interaction – biochemical, fluorescence polarization, dose response (AID 1964);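 also: purified POS-1 fused to maltose binding protein made in E. coli; potency of compounds blocking POS-1 binding to fluorescent RNA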
T3 sequence (G5EF15 whole entry): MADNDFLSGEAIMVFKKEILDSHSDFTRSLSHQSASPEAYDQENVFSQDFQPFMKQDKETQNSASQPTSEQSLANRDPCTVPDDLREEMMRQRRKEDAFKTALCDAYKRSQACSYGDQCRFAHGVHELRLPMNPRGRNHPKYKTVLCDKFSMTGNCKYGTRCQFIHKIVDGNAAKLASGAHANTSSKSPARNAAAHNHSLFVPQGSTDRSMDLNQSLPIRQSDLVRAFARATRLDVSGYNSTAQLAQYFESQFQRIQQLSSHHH

[6] = molecular target: Cytochrome P450 2C19 (Homo sapiens, UniProt P33261); experiment: Cytochrome panel assay with activity outcomes. Panel member name: p450-cyp2c19 Compounds with AC50 equal or less than 10 uM are considered active; assay type: functional
Chain of Cytochrome P450 2C19 (P33261 whole entry): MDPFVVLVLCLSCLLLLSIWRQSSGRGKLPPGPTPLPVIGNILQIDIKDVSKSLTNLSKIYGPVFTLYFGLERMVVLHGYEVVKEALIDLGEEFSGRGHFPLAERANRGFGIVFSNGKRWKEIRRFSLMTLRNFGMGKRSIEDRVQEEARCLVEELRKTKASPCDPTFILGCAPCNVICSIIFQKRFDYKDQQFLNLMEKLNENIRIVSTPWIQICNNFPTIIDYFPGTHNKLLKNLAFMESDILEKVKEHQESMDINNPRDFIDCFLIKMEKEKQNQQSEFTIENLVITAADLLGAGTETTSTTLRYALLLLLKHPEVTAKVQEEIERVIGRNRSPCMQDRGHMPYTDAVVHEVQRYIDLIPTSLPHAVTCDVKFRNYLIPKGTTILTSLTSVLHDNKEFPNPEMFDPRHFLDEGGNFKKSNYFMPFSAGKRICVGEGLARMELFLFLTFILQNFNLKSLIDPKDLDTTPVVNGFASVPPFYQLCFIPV

[7] = molecular target: T4, Corticotropin-releasing factor receptor 2/Corticotropin-releasing factor-binding protein (Homo sapiens, UniProt P24387+Q13324); experiment: activators of CRF receptor 2 with binding protein – uHTS hits, confirmation (AID 602473); assay type: functional; settings: read-out: EC50_Mean
T4 sequence (Q13324 whole entry): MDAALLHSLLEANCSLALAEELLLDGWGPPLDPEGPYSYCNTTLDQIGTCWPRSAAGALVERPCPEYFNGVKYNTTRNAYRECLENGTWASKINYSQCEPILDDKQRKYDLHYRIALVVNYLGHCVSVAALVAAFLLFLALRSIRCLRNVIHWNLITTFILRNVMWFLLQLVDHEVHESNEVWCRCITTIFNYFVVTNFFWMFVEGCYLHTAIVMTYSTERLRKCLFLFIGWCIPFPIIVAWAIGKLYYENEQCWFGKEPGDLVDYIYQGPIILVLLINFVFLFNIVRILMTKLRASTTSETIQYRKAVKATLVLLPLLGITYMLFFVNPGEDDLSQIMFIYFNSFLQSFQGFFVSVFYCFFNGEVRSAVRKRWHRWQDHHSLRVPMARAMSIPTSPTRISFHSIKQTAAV
T4 sequence (P24387 whole entry): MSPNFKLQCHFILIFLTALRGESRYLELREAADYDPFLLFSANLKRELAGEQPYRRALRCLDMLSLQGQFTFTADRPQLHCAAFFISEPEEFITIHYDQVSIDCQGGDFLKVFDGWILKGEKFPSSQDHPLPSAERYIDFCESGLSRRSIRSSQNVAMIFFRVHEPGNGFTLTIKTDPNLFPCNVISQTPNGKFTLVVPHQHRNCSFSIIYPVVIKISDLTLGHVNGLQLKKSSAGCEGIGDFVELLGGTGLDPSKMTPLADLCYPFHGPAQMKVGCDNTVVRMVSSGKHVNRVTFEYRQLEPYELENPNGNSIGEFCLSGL

[8] = tested on: Streptococcus sp. 'group A'; experiment: Streptococcus pyogenes SK(-)GAS viability under kanamycin – luminescence, BacTiterGlo, confirmation, counter-screen for streptokinase expression inhibitor project, dose response (AID 1900); assay type: functional, organism-based
[9] = tested on: Streptococcus; experiment: GAS UMAA2166 growth inhibition – luminescence, BacTiterGlo, counter-screen for streptokinase expression inhibitor project, dose response (AID 1915); assay type: functional, organism-based;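 also: potency for reduction of bacterial viability or growth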
[10] = molecular target: Cytochrome P450 3A4 (Homo sapiens, UniProt P08684);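 also: CYP3A4 tested as one member of a cytochrome P450 panel screen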
Chain of Cytochrome P450 3A4 (P08684 whole entry): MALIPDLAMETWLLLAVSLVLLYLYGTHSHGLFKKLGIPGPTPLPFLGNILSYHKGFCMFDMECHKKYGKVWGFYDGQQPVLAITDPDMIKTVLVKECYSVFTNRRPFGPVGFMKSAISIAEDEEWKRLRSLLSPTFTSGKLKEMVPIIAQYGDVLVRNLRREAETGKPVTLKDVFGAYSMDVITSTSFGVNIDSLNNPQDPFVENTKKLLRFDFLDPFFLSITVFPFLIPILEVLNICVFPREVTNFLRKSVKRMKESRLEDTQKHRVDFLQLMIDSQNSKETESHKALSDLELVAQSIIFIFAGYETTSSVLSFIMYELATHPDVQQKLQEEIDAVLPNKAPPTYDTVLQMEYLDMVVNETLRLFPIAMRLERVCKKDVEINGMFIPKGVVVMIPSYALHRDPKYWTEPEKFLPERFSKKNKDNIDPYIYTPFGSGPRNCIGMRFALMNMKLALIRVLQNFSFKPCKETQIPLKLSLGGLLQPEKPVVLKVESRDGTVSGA

O=C(CN1CCN(c2cccc(Cl)c2)CC1)Nc1ccc([N+](=O)[O-])cc1C(=O)Nc1ccccc1F
EC50 [1]: > 60 µM (not active)
EC50 [2]: 1010 nM (active)

CC(C)(C)NC(=O)c1ccc2c(c1)N(CC(=O)N1CCCCC1)C(=O)C(C)(C)O2
EC50 [3]: > 260 µM (inactive)

O=C(NC1C2CC3CC(C2)CC1C3)C1CC1 (configuration not stated)
EC50 [3]: > 260 µM (inactive)

CC(C)COc1ccc(/C=C2/Sc3ccccc3C2=O)cc1
EC50 [4]: > 300 µM (not active)
EC50 [5]: > 300 µM (not active)

Cc1cc(C)cc(N2C(=O)NC(=O)/C(=C\c3cc(C)n(C)c3C)C2=O)c1
EC50 [4]: 23.5 µM (active)
EC50 [5]: 6.75 µM (active)

CC1(OC(=O)CCc2ccccc2)C(=O)C=C2C=C(C3CC3)OC=C2C1=O (configuration not stated)
EC50 [4]: 30.4 µM (active)
EC50 [5]: 36.6 µM (active)

Cn1c(CN2CCCC2)nc2cc(NC(=O)C3CCCCC3)ccc21
AC50 [6]: inconclusive

O=C(NC1CCCC1)C(c1ccncc1)N(Cc1ccccc1)C(=O)c1ccc(-c2ccccc2)[nH]1 (configuration not stated)
EC50 [1]: > 60 µM (not active)
EC50 [2]: 253 nM (active)

Oc1nc2cc3c(cc2cc1C(c1nnnn1C1CCCC1)N1CCCc2ccccc21)OCCO3 (configuration not stated)
EC50 [7]: > 53 µM (inactive)

Clc1ccc(CCNc2nc3ccccc3n3nnnc23)cc1
EC50 [3]: > 260 µM (inactive)

Cc1nc(NCCc2c[nH]cn2)c2oc3ccccc3c2n1
EC50 [1]: > 60 µM (not active)
EC50 [2]: 305 nM (active)

CCCC(Oc1ccc(Br)cc1)c1nc2c3cc(OC)c(OC)cc3nc(S)n2n1 (configuration not stated)
EC50 [8]: 253 nM (active)
EC50 [9]: 3.62 µM (active)

O=C(/C=C/c1ccc(Cl)cc1Cl)N(Cc1ccccc1)C1CCS(=O)(=O)C1 (configuration not stated)
EC50 [3]: > 260 µM (inactive)

O=S(=O)([N-]c1nc2ccccc2nc1-[n+]1ccc(CCCc2ccccc2)cc1)c1cccs1
EC50 [4]: 34 µM (active)
EC50 [5]: 35.4 µM (active)

COC(=O)CCN(C(=O)c1cc([N+](=O)[O-])cc([N+](=O)[O-])c1)c1ccccn1
EC50 [1]: > 30 µM (not active)
EC50 [2]: 1380 nM (active)

CC1=CC(C)(C)N(C(=O)CSc2nnc(N)s2)c2ccccc21
EC50 [7]: > 53 µM (inactive)

CCCCc1nnc(NC(=O)C(C)Sc2nc(C)cc(O)n2)s1 (configuration not stated)
EC50 [3]: > 260 µM (inactive)

Cc1ccccc1NC(=O)C1CCCN(C(=O)NCc2ccccc2)C1 (configuration not stated)
EC50 [3]: > 260 µM (inactive)

CCOC(=O)C1CCCN(C2CCN(Cc3nc(-c4ccccc4)no3)CC2)C1 (configuration not stated)
EC50 [1]: > 60 µM (not active)
EC50 [2]: 524 nM (active)

CCSC1=N/C(=C\c2ccccc2)C(=O)N1
EC50 [4]: > 300 µM (not active)
EC50 [5]: > 300 µM (not active)

O=C1C2ON(c3ccccc3)C(c3ccncc3)C2C(=O)N1c1ccccc1 (configuration not stated)
AC50 ([6]; read-out: AC50): 0.0708 µM (inconclusive)

Cc1ccc(OCCOCCN2CCCC2)c(Br)c1
EC50 [1]: > 30 µM (not active)
EC50 [2]: 960 nM (active)

Cc1cnc(CNc2ncncc2-c2ccccc2C#N)cn1
AC50 [10]: 12.6 µM (inconclusive)

CN1CCN(NC(=O)/C=C/c2ccc(Br)cc2)CC1
EC50 [3]: 32.3 µM (active)

Cc1cc(/C=C2\C(=O)NC(=O)N(c3ccc(F)cc3)C2=O)c(C)n1-c1cccc(C(=O)O)c1
EC50 [4]: > 300 µM (not active)
EC50 [5]: > 300 µM (not active)

COc1ccc(S(=O)(=O)N(C)CC(=O)N2CCC(C(N)=O)CC2)cc1Cl
EC50 [3]: > 260 µM (inactive)

O=C(CCN1C(=O)c2ccccc2C1=O)C1=NN[C@@H]2C(=O)N(c3ccc(F)cc3)C(=O)[C@H]12
EC50 [3]: > 260 µM (inactive)

Cc1cccc(NC(=O)C(C)N2C(=O)C3C4CC(C(Br)C4Br)C3C2=O)c1 (configuration not stated)
EC50 [7]: 9.65 µM (active)

COc1ccc(-c2nn(-c3ccccc3)cc2CNC(=O)c2cccc([N+](=O)[O-])c2)cc1
EC50 [1]: > 60 µM (not active)
EC50 [2]: 1750 nM (active)

Cc1ccsc1C(=O)C1CCCN(Cc2cnc(N(C)C)s2)C1 (configuration not stated)
EC50 [1]: > 60 µM (not active)
EC50 [2]: 203 nM (active)

COc1cc2oc3ccc(C#Cc4ccc(N)cc4)cc3c(=O)c2cc1OC
EC50 [8]: 1180 nM (active)
EC50 [9]: 1.75 µM (active)

Cc1ccnc(SCC(=O)c2ccc(Br)cc2)c1C#N
EC50 [1]: > 30 µM (not active)
EC50 [2]: 932 nM (active)

N#Cc1cc(NC(=O)c2ccc(F)cc2)c(O)n2c1nc1ccccc12
EC50 [4]: 35 µM (active)
EC50 [5]: 21.7 µM (inconclusive)

Cc1cc(C)cc(NC(=O)CN(C)S(=O)(=O)c2c[nH]cn2)c1
EC50 [3]: > 260 µM (inactive)

COCCN1Cc2cccc(C(=O)Nc3cc(OC)ccc3OC)c2C1=O
EC50 [7]: > 53 µM (inactive)

S=C1NC2(CCS1)Oc1ccccc1C1CC(c3ccccc3)=NN12 (configuration not stated)
EC50 [4]: > 300 µM (not active)
EC50 [5]: > 300 µM (not active)

CN(C)c1ncc2nc(-c3ccccc3)c(=O)n(C3CC3)c2n1
AC50 ([6]; read-out: AC50): 39.8 µM (inconclusive)

CCN(Cc1ccccc1)S(=O)(=O)c1cc(C(=O)NCC2CCCCC2)ccc1OC
EC50 [3]: > 260 µM (inactive)

COC(=O)c1cc(OC)c(OC)cc1N=C(S)N1CCCC1
EC50 [3]: > 260 µM (inactive)

COc1ccc(NC(=O)C2CC(=O)N=C(Nc3cccc(C)c3)N2)cc1 (configuration not stated)
EC50 [3]: > 260 µM (inactive)

CCCCOC(=O)CCc1c(C)n[nH]c1C
EC50 [3]: > 260 µM (inactive)

O=C(NNc1cccc(Cl)n1)Nc1ccccc1Cl
AC50 ([6]; read-out: AC50): 6.31 µM (inconclusive)

CCCc1nnc(SCC(=O)N2CCCCC2C)n1CC1CCCO1 (configuration not stated)
AC50 ([6]; read-out: AC50): 25.1 µM (inconclusive)

COc1ccc(/C=N/N=C2/CC(C)(C)Cc3nnc(O)cc32)cc1
EC50 [4]: 38.1 µM (active)
EC50 [5]: 41.4 µM (active)

COc1ccc2cc(/C(C)=N/NC(=S)Nc3cc(S(=O)(=O)N4CCOCC4)ccc3N3CCOCC3)ccc2c1
EC50 [1]: > 60 µM (not active)
EC50 [2]: 572 nM (active)

COc1ccc(C2C(C#N)=C(/N=C/N3CCN(C)CC3)OC3=C2C(=O)CC(C)(C)C3)cc1 (configuration not stated)
EC50 [4]: > 300 µM (not active)
EC50 [5]: > 300 µM (not active)

CN1CCN(C2=Cc3ccccc3Oc3ccc(Cl)cc32)CC1
AC50 [10]: 31.6 µM (inconclusive)

CC1(C)S[C@@H]2[C@H](NC(=O)Cc3ccccc3)C(=O)N2[C@H]1C(=O)O [PENICILLIN G]
EC50 [8]: < 60 nM (active)
EC50 [9]: < 0.06 µM (active)

CNNCc1ccc(C(=O)NC(C)C)cc1 [PROCARBAZINE]
AC50 ([6]; read-out: AC50): 5.01 µM (inconclusive)
